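Cultured in 96-well plates, cells were exposed to test compound for 48 hours across five concentrations. At the GI50, growth is halved.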 Calls of active or inactive are those of the source. Rule as the data show it: active = GI50 up to about 1.1 µM and inactive = higher.

Holding throughout (assay): inhibition of tumour cell growth, NCI panel, 48 h
For experiment [1], the system named is 786-0.
Experiment [2] relates to A549.
Experiment [3] has as its system EKVX.
The subject of experiment [4] is HCC 2998.
The subject of experiment [5] is HOP-92.
For experiment [6], the system named is IGROV-1.
Experiment [7] relates to K562.
The test system of experiment [8] is MDA-MB-231.
Experiment [9] concerns NCI-H226.
The test system of experiment [10] is OVCAR-5.
Experiment [11] has as its system RPMI-8226.
Experiment [12] relates to SK-MEL-28.
Experiment [13] concerns SK-MEL-5.
The test system of experiment [14] is SR.
Experiment [15] deals with T47D.
The test system of experiment [16] is TK-10.
Experiment [17] relates to Hs-578T.
The test system of experiment [18] is Malme-3M.
The test system of experiment [19] is SF-268.
For experiment [20], the system named is SNB-75.

For the compound `CC(C)(C)N(Cc1ccc2c(c1)OCO2)C(=O)/C=C\Sc1ccccc1`, the GI50 in experiment [1] is > 100 µM (inactive); in experiment [2], 47 µM (inactive); in [3], 60.8 µM (inactive); in experiment [4], 97.1 µM (inactive); in [5] it was 14.2 µM (inactive); in [6], 83.2 µM (inactive). Further, the GI50 in experiment [7] was 42.9 µM (inactive); in experiment [8] it was > 100 µM (inactive); in experiment [9], 68.2 µM (inactive); in experiment [10] it was > 100 µM (inactive); in experiment [11], 30.3 µM (inactive); in [12], > 100 µM (inactive). The GI50 in [13] is 53.2 µM (inactive); in [14], 4.44 µM (inactive); in experiment [15], 21.4 µM (inactive); in experiment [16], > 100 µM (inactive).

For `COC(=O)C(CSSC[C@H](N/C(C)=C/C(C)=O)C(=O)OC)N/C(C)=C/C(C)=O` (stereo partly specified), the GI50 is 32.2 µM (inactive) in experiment [1]; 99.8 µM (inactive) in [2]; 16.4 µM (inactive) in [3]; 32.5 µM (inactive) in [5]; 21.6 µM (inactive) in [17]; 36.7 µM (inactive) in experiment [6]. For the same compound, the GI50 in [7] was 33.3 µM (inactive); in experiment [8], > 100 µM (inactive); in [18], 14.4 µM (inactive); in experiment [9], > 100 µM (inactive); in [10], 18.7 µM (inactive); in [11] it was 21.3 µM (inactive). Moreover, the GI50 was 42.2 µM (inactive) in experiment [19]; > 100 µM (inactive) in experiment [12]; 67.3 µM (inactive) in experiment [13]; 71.4 µM (inactive) in experiment [20]; 16.6 µM (inactive) in experiment [15]; 2.66 µM (inactive) in experiment [16].

In the case of `CC1CCCC2=C1C(c1ccc(Cl)cc1)n1c(s/c(=C\c3ccc(Cl)cc3)c1=O)=N2` (stereo unspecified), the GI50 in experiment [1], in experiment [2], in [3], in experiment [5], in experiment [17] and in experiment [6] was > 100 µM (inactive) in each case. The GI50 in experiment [7], in experiment [8], in experiment [10], in [11], in [19] and in experiment [12] was > 100 µM (inactive) in each case. The GI50 in experiment [13], in [20], in [15] and in [16] was > 100 µM (inactive) throughout.

Regarding `N#Cc1nc(C#N)c(NC(=O)c2ccccc2C(=O)O)[nH]1`, the GI50 in experiment [1], in experiment [2], in experiment [3], in experiment [5], in experiment [17] and in [6] was > 100 µM (inactive) in each case. In addition, the GI50 in experiment [7], in [8], in [18], in experiment [9], in experiment [10] and in experiment [11] was > 100 µM (inactive) throughout. The GI50 in [19], in experiment [12], in experiment [13], in experiment [20], in [15] and in experiment [16] was > 100 µM (inactive) in each case.

For `CC(C)(C)[Si](C)(C)Oc1ccc(C2CNC(=O)C23CCC(=O)N3Cc2ccccc2)cc1` (stereo unspecified), the GI50 in experiment [1] was 18.9 µM (inactive); in experiment [2] it was 10 µM (inactive); in experiment [3], 6.68 µM (inactive); in experiment [5], 17.1 µM (inactive); in [17] it was 7.31 µM (inactive); in experiment [6] it was 15.3 µM (inactive). Besides, the GI50 in experiment [7] is 7.24 µM (inactive); in experiment [18], 18.2 µM (inactive); in [9], 18.9 µM (inactive); in [10], 17.5 µM (inactive); in experiment [11], 4.15 µM (inactive); in experiment [19] it was 12.6 µM (inactive). In addition, the GI50 in experiment [13] was 5.71 µM (inactive); in experiment [20], 17.8 µM (inactive); in experiment [14], 7.96 µM (inactive); in experiment [15], 15.9 µM (inactive); in [16], 13.2 µM (inactive).

For the compound `CCOC(=O)/C(=C\NCC(OCC)OCC)c1nc2ccccc2[nH]1`, the GI50 is 31.5 µM (inactive) in [1]; 42.9 µM (inactive) in experiment [2]; 27.6 µM (inactive) in [3]; 20.1 µM (inactive) in experiment [4]; 35.6 µM (inactive) in experiment [5]; 35.6 µM (inactive) in experiment [17]. Further, the GI50 in experiment [6] was 29 µM (inactive); in [7], 22.8 µM (inactive); in experiment [18] it was 25.8 µM (inactive); in [9], 37.7 µM (inactive); in experiment [10], 48.6 µM (inactive); in experiment [11], 18.7 µM (inactive). The GI50 in experiment [19] is 32.6 µM (inactive); in experiment [12], 26.8 µM (inactive); in experiment [13], 14.5 µM (inactive); in experiment [20], 22.2 µM (inactive); in experiment [14] it was 18.6 µM (inactive); in [15], 21.6 µM (inactive). Besides, the GI50 in experiment [16] is 31.3 µM (inactive).

As to `CC(CN(C)C)C(=O)c1ccccc1C(=O)O` (stereo unspecified), the GI50 in experiment [1] was 24.2 µM (inactive); in experiment [2], 41.1 µM (inactive); in [3], 51.1 µM (inactive); in experiment [5], 41.9 µM (inactive); in experiment [17] it was 11.1 µM (inactive); in [6] it was 44 µM (inactive). For the same compound, the GI50 is 30.9 µM (inactive) in experiment [7]; 18.8 µM (inactive) in [8]; 22 µM (inactive) in [18]; 52.4 µM (inactive) in experiment [10]; 18.5 µM (inactive) in [11]; 14.1 µM (inactive) in experiment [19]. Further, the GI50 in [12] is 31.2 µM (inactive); in experiment [13], 28.5 µM (inactive); in [15], 37.1 µM (inactive); in experiment [16] it was 19.5 µM (inactive).

For `N#C[BH2-][n+]1cn(C2CC(O)C(COP(=O)(O)OC3CC(n4cnc5c(=O)[nH]c(N)nc54)OC3CO)O2)c2nc(N)[nH]c(=O)c21` (stereo unspecified), the GI50 in experiment [1] is > 100 µM (inactive); in [2], > 100 µM (inactive); in [3] it was > 100 µM (inactive); in [4] it was > 100 µM (inactive); in experiment [5], > 100 µM (inactive); in experiment [6] it was 22 µM (inactive). Besides, the GI50 in [8] was > 100 µM (inactive); in experiment [18], > 100 µM (inactive); in experiment [9], 23.1 µM (inactive); in [10], > 100 µM (inactive); in experiment [19] it was > 100 µM (inactive); in experiment [12], > 100 µM (inactive). Further, the GI50 is > 100 µM (inactive) in experiment [13], > 100 µM (inactive) in experiment [20], 1 µM (active) in experiment [14] and > 100 µM (inactive) in experiment [15].

The values are drawn from ChEMBL document CHEMBL1201862, “PubChem BioAssay data set” (2004).
